The values that follow come from US20100279962A1, “MONOSEBACATE OF PYRAZOLE DERIVATIVE” (KISSEI PHARMACEUTICAL CO., LTD., priority 2007, published 2010).

Series [1] in a line: Storage stability test (purity by HPLC, deliquescence). Type of series: physicochemical. The conditions noted are these: for Purity (%) Initial / Purity (%) After 2 months: HPLC; for Storage stability (in words): 2 months. The protocol:
The crystals of the monosebacate in Example 1 and amorphous 3-(3-{4-[3-(β-D-glucopyranosyloxy)-5-isopropyl-1H-pyrazol-4-ylmethyl]-3-methylphenoxy} propylamino)-2,2-dimethylpropionamide (free form) as Comparative Example were stored under condition of 40° C./75% relative humidity or 60° C. in open vessels, existence or nonexistence of the deliquescence and the storage stability for 2 months were examined. […] Analytical conditions of HPLC are as follows.
Detector: ultraviolet-visible absorption spectrophotometer
Column: LUNA C18(2) (produced by Phenomenex), 5 μm, 4.6×250 mm, particle diameter 100×10^−10 m
Column Temperature: a constant temperature of around 25° C.
Sample concentration: 1 mg/mL
Mobile phase A: 10 mM dipotassium hydrogenphosphate aqueous solution adjusted to pH 7.8 with phosphoric acid
Mobile phase B: Acetonitrile
0-30 min: Mobile phase A/Mobile phase B=78/22, 30-50 min: Mobile phase A/Mobile phase B=78/22→30/70, 50-60 min: Mobile phase A/Mobile phase B=30/70
Range of area measurement: for 50 minutes from the start, except for the area of the peak of the blank solution

Series [2] relates to Male Wistar rats. The series is described as follows: Oral glucose tolerance test, combination effect with sulfonylureas. The class given is in vivo, rat. The conditions noted are these: for Plasma glucose concentration (mg/dL) Just before administration: fasted rats, baseline before oral dosing; for Plasma glucose concentration (mg/dL) Just before administration / Plasma glucose concentration (mg/dL) 1 hr after administration: mean ± standard error; for Plasma glucose concentration at 1 hr compared with the Control group (in words) / Plasma glucose concentration (mg/dL) 1 hr after administration: oral, monosebacate 0.03 mg/kg as free form, gliclazide 0.3 mg/kg, oral glucose load. The protocol:
(§1) Male Wistar rats (Charles River Japan, Inc.) at 9 weeks of age, fasted about 16 hours (each group has 6 animals), were administrated orally in a volume of 2.5 mL/kg with distilled water and 0.1% methylcellulose solution in the Control group, with the monosebacate (0.03 mg/kg as the above compound (B) (free form)) dissolved in distilled water (hereinafter referred to as the “monosebacate solution”) and 0.1% methylcellulose solution in the Monosebacate alone group, with gliclazide (0.3 mg/kg as gliclazide) dissolved in 0.1% methylcellulose solution (hereinafter referred to as the “gliclazide solution”) and distilled water in the Gliclazide alone group and with the monosebacate solution and the gliclazide solution (0.03 mg/kg as the compound (B) and 0.3 mg/kg as gliclazide) in the Gliclazide combination group, respectively. Subsequently, 0.4 g/mL of glucose solution (5 mL/kg) was loaded orally. The blood was collected from tail vein before and 1 hr after administration of test substance, and the plasma glucose concentrations were measured using Glucose C-II test WAKO (Wako Pure Chemical Industries, Ltd.). The numerical values in the table represent mean value±standard error.

Series [3] deals with Male Wistar rats. The series is described as follows: Oral glucose tolerance test, combination effect with glinides. Type of series: in vivo, rat. To be noted: for Plasma glucose concentration (mg/dL) Just before administration: fasted rats, baseline before oral dosing; for Plasma glucose concentration (mg/dL) Just before administration / Plasma glucose concentration (mg/dL) 1 hr after administration: mean ± standard error; for Plasma glucose concentration at 1 hr compared with the Control group (in words) / Plasma glucose concentration (mg/dL) 1 hr after administration: oral, monosebacate 0.03 mg/kg as free form, mitiglinide calcium hydrate 0.3 mg/kg, oral glucose load. Here is the method:
as §1
Instead of gliclazide in the Gliclazide alone group and the Gliclazide combination group, mitiglinide calcium hydrate (JAN) (0.3 mg/kg as mitiglinide calcium hydrate) was used (hereinafter referred to as the “Mitiglinide alone group” and the “Mitiglinide combination group”, respectively), and the plasma glucose concentrations were measured in the same way as the above method (1). The numerical values in the table represent mean value±standard error.

Where [4] appears, read: 40° C./75% relative humidity storage test.
Where [5] appears, read: 60° C. in open vessels storage test.
The mark [6] stands for this setting: stored at 40° C./75% relative humidity for 2 months.
Where [7] appears, read: stored at 60° C. in open vessels for 2 months.

For the molecule `Cc1cc(OCCCNCC(C)(C)C(N)=O)ccc1Cc1c(O[C@@H]2O[C@H](CO)[C@@H](O)[C@H](O)[C@H]2O)n[nH]c1C(C)C` [Comparative Example, 3-(3-{4-[3-(β-D-glucopyranosyloxy)-5-isopropyl-1H-pyrazol-4-ylmethyl]-3-methylphenoxy}propylamino)-2,2-dimethylpropionamide], the Deliquescence entry in series [1] (40° C./75% relative humidity) was “Yes”; in series [1] (40° C./75% relative humidity, listed as free form), “deliquescence from the initial of the experiment”. Further, the “Purity (%) Initial” value in series [1] (setting [4]) and in series [1] (setting [5]) was 98.7% each time. In addition, the “Storage stability (in words)” value in series [1] (40° C./75% relative humidity) is “decrease in the purity”; in series [1] (60° C. in open vessels), “remarkable decrease in the purity due to the decomposition”. Moreover, the results for the “Purity (%) After 2 months” value in series [1] (setting [6]) and in series [1] (setting [7]) were 97.0% and 95.3%, respectively.
As for `Cc1ccc(S(=O)(=O)NC(=O)NN2CC3CCCC3C2)cc1` (stereo not drawn) [Gliclazide, gliclazide], in series [2], the “Plasma glucose concentration (mg/dL) Just before administration” value was found to be 80.7 ± 6.7 mg/dL, the “Plasma glucose concentration at 1 hr compared with the Control group (in words)” value is “lower plasma glucose concentrations” and the “Plasma glucose concentration (mg/dL) 1 hr after administration” value worked out at 136.5 ± 6.7 mg/dL.
Regarding `O=C(O)[C@H](CC(=O)N1C[C@H]2CCCC[C@H]2C1)Cc1ccccc1` [Mitiglinide, mitiglinide calcium hydrate], in series [3], the “Plasma glucose concentration (mg/dL) Just before administration” value was 85.8 ± 1.7 mg/dL, the “Plasma glucose concentration at 1 hr compared with the Control group (in words)” value was “lower plasma glucose concentrations” and the “Plasma glucose concentration (mg/dL) 1 hr after administration” value is on record as 119.1 ± 5.8 mg/dL.
For the molecule “Bis[3-(3-{4-[3-(β-D-glucopyranosyloxy)-5-isopropyl-1H-pyrazol-4-ylmethyl]-3-methylphenoxy}propylamino)-2,2-dimethylpropionamide] monosebacate [Example 1]”, the “Plasma glucose concentration (mg/dL) Just before administration” value in series [3] is on record as 83.8 ± 1.8 mg/dL; in series [2], 81.6 ± 3.1 mg/dL. Also, the “Plasma glucose concentration at 1 hr compared with the Control group (in words)” value in series [3] and in series [2] was “lower plasma glucose concentrations” each time. Moreover, the “Plasma glucose concentration (mg/dL) 1 hr after administration” value stood at 141.3 ± 5.6 mg/dL in series [3] and 127.6 ± 3.8 mg/dL in series [2]. The Deliquescence entry in series [1] (40° C./75% relative humidity) is on record as “Nil”. The “Purity (%) Initial” value in series [1] (setting [4]) and in series [1] (setting [5]) was 99.6% in each case. The entries for the “Storage stability (in words)” value in series [1] (40° C./75% relative humidity) and in series [1] (60° C. in open vessels) were “excellent storage stability” and “almost no decrease in the purity”, respectively. In addition, the figures for the “Purity (%) After 2 months” value in series [1] (setting [6]) and in series [1] (setting [7]) were 99.5% and 99.2%, respectively.
